Consider ten molecules from ChEMBL document CHEMBL1201862, “PubChem BioAssay data set” (2004).

Common to all, as to assay: NCI anticancer screen, dose series, 48 h
In assay [1] the test system is DU-145.
Assay [2] relates to CAKI-1.
Assay [3] relates to SNB-19.
Assay [4] relates to OVCAR-8.
Assay [5] relates to RXF 393.
Assay [6] relates to OVCAR-3.
The subject of assay [7] is 786-0.
The subject of assay [8] is PC-3.
Assay [9] concerns NCI-H23.
Assay [10] deals with HCT-116.
Assay [11] concerns IGROV-1.
Assay [12] relates to MDA-N.
Assay [13] concerns SNB-75.
For assay [14], the system named is K562.
For assay [15], the system named is CCRF-CEM.
Assay [16] relates to MCF7.
Assay [17] relates to ACHN.
Assay [18] has as its system SK-MEL-5.
For assay [19], the system named is SK-MEL-28.
In assay [20] the test system is SW-620.

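All cell lines were grown in 96-well plates and treated with compound for 48 hours. GI50 is the concentration that inhibits growth by half.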 Active and inactive are the calls of the source. Cut-off read from the data, not from the text of the source: active = GI50 up to about 1.1 µM and inactive = higher. Where a SMILES comes first, the peptide text is derived from it. The star is where a group is joined. Fmoc = O=C(OCC1c2ccccc2-c2ccccc21)*; Boc = CC(C)(C)OC(=O)*

Turning to `CCC1(O)C(=O)OCc2c1cc1n(c2=O)Cc2cc3ccccc3nc2-1` (stereo not given), the GI50 is 0.018 µM (active) in assay [1]; < 0.01 µM (active) in assay [2]; 0.0143 µM (active) in [3]; 0.0653 µM (active) in [4]; 0.073 µM (active) in assay [5]; 0.308 µM (active) in [6]. The GI50 was 0.0279 µM (active) in [7]; 2.03 µM (inactive) in assay [8]; < 0.0188 µM (active) in assay [9]; 0.048 µM (active) in [10]; 0.0635 µM (active) in assay [11]; 0.0817 µM (active) in [12]. For the same molecule, the GI50 in assay [13] is < 0.0215 µM (active); in assay [14] it was 0.0455 µM (active); in [15], < 0.0122 µM (active); in [16], 0.0405 µM (active); in assay [17], 0.153 µM (active); in [18] it was 0.0473 µM (active). Further, the GI50 in assay [19] was 0.334 µM (active); in [20] it was 0.167 µM (active).

With `CCOC(=O)C1=C(C)NC(C)=C(C(=O)OCC)C1c1ccc(Cl)cc1`, the GI50 in [1] was 17.3 µM (inactive); in assay [2], 16.5 µM (inactive); in assay [3], 16.7 µM (inactive); in assay [4] it was 16.1 µM (inactive); in [5], 14.1 µM (inactive); in [6], 15.8 µM (inactive). Besides, the GI50 in [7] is 13 µM (inactive); in assay [8], 14.9 µM (inactive); in [9], 14.4 µM (inactive); in assay [10] it was 9.14 µM (inactive); in [11], 15.1 µM (inactive); in assay [12], 13.2 µM (inactive). Moreover, the GI50 in assay [13] was 18.7 µM (inactive); in assay [14] it was 9.91 µM (inactive); in assay [15], 1.43 µM (inactive); in assay [16] it was 17.1 µM (inactive); in [17] it was 16 µM (inactive); in assay [18], 13.7 µM (inactive). In addition, the GI50 in assay [19] was 20.4 µM (inactive); in [20], 16.3 µM (inactive).

Turning to `CC1C[C@]2(C)C(=O)Nc3ccccc3[C@@H]2Nc2ccccc21` (stereo not given in full), the GI50 was 27.7 µM (inactive) in [1]; 20.3 µM (inactive) in [2]; 21.8 µM (inactive) in assay [3]; 14.8 µM (inactive) in assay [4]; 24.8 µM (inactive) in [5]; 17.8 µM (inactive) in [6]. Besides, the GI50 was 22 µM (inactive) in assay [7]; 17.6 µM (inactive) in [8]; 19.5 µM (inactive) in [9]; 16.1 µM (inactive) in assay [10]; 24.4 µM (inactive) in assay [11]; 28.8 µM (inactive) in assay [12]. Moreover, the GI50 is 46.3 µM (inactive) in assay [13]; 32.9 µM (inactive) in assay [14]; 30.5 µM (inactive) in assay [15]; 21 µM (inactive) in assay [16]; 27.1 µM (inactive) in assay [17]; 16.5 µM (inactive) in assay [18]. Also, the values for the GI50 in assay [19] and in assay [20] were 28.6 µM (inactive) and 34.6 µM (inactive), respectively.

As to `COc1ccc(C2=C(Cl)c3cc(OC)c(OC)cc3C2Cl)cc1` (stereo not given), the GI50 was 17.9 µM (inactive) in [1]; 15.4 µM (inactive) in assay [2]; 18.7 µM (inactive) in assay [3]; 16.5 µM (inactive) in [4]; 14.5 µM (inactive) in assay [5]; 16.8 µM (inactive) in [6]. Besides, the GI50 was 12.2 µM (inactive) in assay [7]; 12.8 µM (inactive) in assay [8]; > 37.4 µM (inactive) in assay [9]; 14.2 µM (inactive) in assay [10]; 17.4 µM (inactive) in assay [11]; 10.1 µM (inactive) in [12]. Besides, the GI50 in assay [13] is 0.499 µM (active); in [14], 5.24 µM (inactive); in assay [15] it was 2.84 µM (inactive); in assay [16] it was 10.5 µM (inactive); in assay [17], 13.9 µM (inactive); in assay [18], 13.7 µM (inactive). The GI50 in [19] is 16 µM (inactive); in assay [20] it was 15.3 µM (inactive).

As for `O=C(c1ccc(Cl)cc1)N(C(=O)N1CCC(c2ccccc2)CC1)c1ccccc1`, the GI50 in [1] is 59 µM (inactive); in [2], 54.1 µM (inactive); in [3], 72.1 µM (inactive); in [4] it was 33.8 µM (inactive); in assay [5], 11.9 µM (inactive); in assay [6], 44.8 µM (inactive). Further, the GI50 in assay [7] is 70.3 µM (inactive); in [8], 6.4 µM (inactive); in assay [9], 23.9 µM (inactive); in assay [10] it was 17.5 µM (inactive); in assay [11], 17.9 µM (inactive); in [12], 39.3 µM (inactive). The GI50 was 1.83 µM (inactive) in assay [13]; 32.1 µM (inactive) in assay [14]; 18.9 µM (inactive) in [15]; 39.4 µM (inactive) in assay [16]; 57.8 µM (inactive) in assay [17]; 15.4 µM (inactive) in assay [18]. In addition, the GI50 in [19] was 45.2 µM (inactive); in assay [20], 92 µM (inactive).

Take `Cc1nc(Nc2nc3ccccc3[nH]2)[nH]c(=O)c1CCO`: the GI50 was 61.7 µM (inactive) in [1]; 53.5 µM (inactive) in assay [2]; > 100 µM (inactive) in assay [3]; > 53.2 µM (inactive) in [4]; 21.7 µM (inactive) in assay [5]; > 100 µM (inactive) in assay [6]. Further, the GI50 in assay [7] is 65.6 µM (inactive); in assay [8], > 100 µM (inactive); in assay [9], 98.6 µM (inactive); in [10], 77.6 µM (inactive); in assay [11] it was 12.3 µM (inactive); in [12] it was > 92 µM (inactive). Further, the GI50 in assay [13] was > 100 µM (inactive); in assay [14], > 100 µM (inactive); in [15], > 69 µM (inactive); in assay [16], > 100 µM (inactive); in [17] it was 50.9 µM (inactive); in assay [18], 70.3 µM (inactive). The GI50 was > 100 µM (inactive) in assay [19] and 99.8 µM (inactive) in [20].

`Cc1ccc(S(=O)(=O)Oc2nc3ccccc3nc2N(S(=O)(=O)c2ccc(C)cc2)S(=O)(=O)c2ccc(C)cc2)cc1`: the GI50 was 53.8 µM (inactive) in assay [1]; 72.4 µM (inactive) in [2]; 66.8 µM (inactive) in assay [3]; 52.2 µM (inactive) in assay [4]; 76.4 µM (inactive) in assay [5]; 41.5 µM (inactive) in [6]. The GI50 in assay [7] was 38.6 µM (inactive); in [8] it was 38.4 µM (inactive); in assay [9] it was 47.8 µM (inactive); in [10] it was 36.3 µM (inactive); in assay [11], 92.3 µM (inactive); in [12], 45 µM (inactive). Besides, the GI50 in [13] was 37.2 µM (inactive); in assay [14], > 10 µM (inactive); in assay [15] it was 50.1 µM (inactive); in assay [16], 84.1 µM (inactive); in assay [17], 45.9 µM (inactive); in assay [18] it was 47.9 µM (inactive). In addition, the GI50 in assay [19] was 55.6 µM (inactive); in [20], 34.8 µM (inactive).

Regarding `O=C1Nc2nccnc2C(=O)N2CCC[C@@H]12`, the GI50 in assay [1], in assay [2], in [3], in assay [4], in assay [5] and in assay [6] was > 100 µM (inactive) in each case. Further, the GI50 in assay [7], in assay [8], in assay [9], in [10], in assay [11] and in [12] was > 100 µM (inactive) in each case. The GI50 in assay [13], in [14], in assay [15], in assay [16], in [17] and in assay [18] was > 100 µM (inactive) throughout. For the same molecule, the GI50 in assay [19] and in [20] was > 100 µM (inactive) each time.

`CN(C)CCOc1ccc(-c2c(Oc3ccccc3)c(=O)oc3ccccc23)cc1`: the GI50 is 13.8 µM (inactive) in [1]; 22.3 µM (inactive) in assay [2]; 8.02 µM (inactive) in assay [3]; 15.6 µM (inactive) in assay [4]; 3.08 µM (inactive) in assay [5]; 12.4 µM (inactive) in [6]. Further, the GI50 in [7] was 8.39 µM (inactive); in [8], 9.93 µM (inactive); in assay [9], 14.1 µM (inactive); in [10], 4.83 µM (inactive); in [11], 10.7 µM (inactive); in assay [12], 2.19 µM (inactive). The GI50 in [13] is 9.59 µM (inactive); in assay [14] it was 2.39 µM (inactive); in assay [15], 0.459 µM (active); in assay [16] it was 4.66 µM (inactive); in assay [17], 11.9 µM (inactive); in [18], 3.78 µM (inactive). For the same molecule, the GI50 was 12.4 µM (inactive) in assay [19] and 11.4 µM (inactive) in [20].

For the molecule `CC(C)(C)OC(=O)NCCCCC(NC(=O)OCC1c2ccccc2-c2ccccc21)C(=O)N1CCCC1C(=O)NCC(N)=O` (stereo not drawn) (Fmoc-Lys(Boc)-Pro-Gly-NH2; configuration not given here), the GI50 in assay [1] is > 100 µM (inactive); in [2], 16.4 µM (inactive); in assay [3], > 100 µM (inactive); in assay [4], 66.5 µM (inactive); in assay [5] it was 61 µM (inactive); in [6] it was 45.1 µM (inactive). Further, the GI50 was 19.3 µM (inactive) in [7]; 27.9 µM (inactive) in assay [8]; 94.8 µM (inactive) in assay [9]; 36.6 µM (inactive) in assay [10]; 48.4 µM (inactive) in assay [11]; 19.3 µM (inactive) in assay [12]. For the same molecule, the GI50 in assay [13] is 7.6 µM (inactive); in assay [14], 48.1 µM (inactive); in [15], 76.6 µM (inactive); in assay [16], 43.9 µM (inactive); in assay [17], 17.9 µM (inactive); in [18], 80.4 µM (inactive). The results for the GI50 in [19] and in assay [20] were > 100 µM (inactive) and 87.9 µM (inactive), respectively.
